The values that follow come from patent publication US20230167073A1 (Teijin Pharma Limited, priority 2020, published 2023).

Bounds are passed on as bounds.

The assay deals with T1, Human TRPC6 (Homo sapiens, UniProt Q9Y210).
T1 construct: expressed in transfected cells
T1 sequence (Q9Y210 1-931): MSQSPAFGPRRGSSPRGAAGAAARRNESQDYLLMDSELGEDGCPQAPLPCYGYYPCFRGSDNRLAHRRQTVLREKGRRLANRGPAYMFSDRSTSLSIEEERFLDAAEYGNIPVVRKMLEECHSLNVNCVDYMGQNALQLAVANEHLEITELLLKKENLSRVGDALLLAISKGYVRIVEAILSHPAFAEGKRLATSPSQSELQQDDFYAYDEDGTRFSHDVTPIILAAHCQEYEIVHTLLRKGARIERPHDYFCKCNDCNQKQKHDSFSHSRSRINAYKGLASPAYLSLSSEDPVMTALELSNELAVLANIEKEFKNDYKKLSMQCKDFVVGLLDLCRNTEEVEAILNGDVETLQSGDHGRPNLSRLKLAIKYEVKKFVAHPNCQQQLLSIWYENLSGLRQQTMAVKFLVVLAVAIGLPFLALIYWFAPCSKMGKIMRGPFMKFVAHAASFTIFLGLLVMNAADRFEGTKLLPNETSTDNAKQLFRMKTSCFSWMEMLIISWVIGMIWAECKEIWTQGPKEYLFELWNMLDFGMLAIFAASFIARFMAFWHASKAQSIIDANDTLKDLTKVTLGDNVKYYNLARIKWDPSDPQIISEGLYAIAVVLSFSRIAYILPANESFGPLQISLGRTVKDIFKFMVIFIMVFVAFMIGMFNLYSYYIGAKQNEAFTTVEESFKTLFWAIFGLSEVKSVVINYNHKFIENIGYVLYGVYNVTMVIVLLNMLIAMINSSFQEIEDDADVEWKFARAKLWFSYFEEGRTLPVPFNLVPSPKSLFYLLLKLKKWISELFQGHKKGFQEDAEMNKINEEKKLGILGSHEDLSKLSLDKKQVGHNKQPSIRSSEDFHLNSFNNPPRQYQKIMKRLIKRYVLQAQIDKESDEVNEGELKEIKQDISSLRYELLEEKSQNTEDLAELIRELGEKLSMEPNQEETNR
The assay is described as follows: Evaluation of TRPC6 channel inhibitory activity (2), HEK293 cells with stably introduced human TRPC6, OAG stimulation, FLIPR tetra (Compound Nos. 1293 to 1405). The class given is cell-based. As to conditions: HEK293 cells with stably introduced human TRPC6, OAG 50 μM/0.5% DMSO, read-out: Inhibitory activity (pIC50 class) (converted). As for the experimental part:
Evaluation of TRPC6 Channel Inhibitory Activity (2) (Compound Nos. 1293 to 1405)
The activity of the TRPC6 inhibitor was measured by stimulating HEK293 cells, in which human TRPC6 was stably introduced, with OAG (1-Oleoyl-2-acetyl-sn-glycerol, Miliipore Sigma, 06754), using the FLIPR tetra system. The cells were proliferated in a humid environment at 37° C. 5% CO2 using a growth medium (DMEM (Dulbecco's Modified Eagle's Medium) high glucose containing 10% fetal bovine serum, 1×PSGlu (penicillin-streptomycin glutamine), 1×NEAA (Non-essential amino acid), sodium pyruvate and 200 μg/mL hyglomycin. For cell subculture, the cells were proliferated to 70-90% confluence, and gently washed twice with PBS (phosphate-buffered saline) free of calcium and magnesium after removing the medium. Then, the cells were incubated at 37° C. for 5 minutes after adding trypsin (3 mL), peeled off by tapping the flask at the base of the hand, 7 mL of growth medium was added to inactivate trypsin, and then the cells were resuspended. Usually, the cells were separated every 2-3 days to become a cell density of ⅕. The day before evaluation, the cells were seeded in a poly-D-lysine (PDL) coated 384-well plate using a multi-channel pipette or multidrop at a cell density of 1.0-1.5×10^4 cells/25 μL/well. After culturing overnight in a PDL-coated 384 Blackwell plate, a fluorescent dye buffer was added first to the cells and the cells were cultured at room temperature for 90-120 minutes. For preparing 10 mL of fluorescent dye buffer, 9 mL of assay buffer, 1 mL of 10×PBX signal enhancer, and 10 μL of calcium indicator were mixed. Cells treated with the compounds of each level 25 minutes before the stimulation with OAG of TRPC6 agonist were incubated. OAG solution was prepared by adding OAG to assay buffer (Ca ringer solution base: 10 mM HEPES (4-(2-hydroxyethyl)-1-piperazine-ethanesulfonic acid), 4 mM MgCl2, 120 mM NaCl, 5 mM KCl, pH=7.2 (25° C.)+0.1% BSA+2 mM CaCl2)) to give an OAG concentration of 0.2 mM/2% DMSO. The final concentration of OAG added to the cells is 50 μM/0.5% DMSO. A volume of 12.5 μL of OAG solution was added, and activation of TRPC6 channel was measured using the FLIPR tetra system assaying the change in intracellular calcium level as an index. The 180 seconds imaging frame was defined as the background signal, and the subtraction of the background signal from the raw data was used as the fluorescence peak signal. Each fluorescence peak signal is standardized using an OAG-induced signal and buffer-induced signal as 100% and 0%, respectively. The inhibition rate obtained by plotting the peak signal after the addition of the compounds of each level was analyzed by a four-parameter logistic regression to quantify the inhibition rate in the logarithm of the inverse of the effective concentration which gives a 50% inhibition rate (pIC50). The intensity was expressed by the above-mentioned symbols (+, ++, +++).
Take `Cn1nc(-c2ccccn2)cc1Oc1cc(Cl)ccc1-c1ncc(CCN)cn1` [compound 1322, 2-[2-[4-chloro-2-(2-methyl-5-pyridin-2-ylpyrazol-3-yl)oxyphenyl]pyrimidin-5-yl]ethanamine]: the IC50 was < 10 nM.
Next, `Cn1nc(-c2ccccn2)cc1Oc1cc(F)ccc1-c1ncc([C@H](F)CN)cn1` [compound 1335, (2S)-2-fluoro-2-[2-[4-fluoro-2-(2-methyl-5-pyridin-2-ylpyrazol-3-yl)oxyphenyl]pyrimidin-5-yl]ethanamine]: < 10 nM; `Cn1nc(-c2ccccn2)cc1Oc1cc(Cl)ccc1-c1ncc(CN)cn1` [compound 1323, [2-[4-chloro-2-(2-methyl-5-pyridin-2-ylpyrazol-3-yl)oxyphenyl]pyrimidin-5-yl]methanamine]: < 10 nM; `Cn1nc(-c2ccccn2)cc1Oc1cc(Cl)ccc1-c1ccc([C@H](F)CN)cn1` [compound 1338, (2S)-2-[6-[4-chloro-2-(2-methyl-5-pyridin-2-ylpyrazol-3-yl)oxyphenyl]pyridin-3-yl]-2-fluoroethanamine]: < 10 nM.
Next, `Cc1cc(Oc2cc(C#N)ccc2-c2ncc(CN)cn2)nc(N2CCOCC2)n1` [compound 1298, 4-[5-(aminomethyl)pyrimidin-2-yl]-3-(6-methyl-2-morpholin-4-ylpyrimidin-4-yl)oxybenzonitrile]: 10 to 1000 nM; `Cn1nc(-c2ccccn2)cc1Oc1cc(Cl)ccc1-c1ccc([C@H](N)C(F)(F)F)cn1` [compound 1379, (1S)-1-[6-[4-chloro-2-(2-methyl-5-pyridin-2-ylpyrazol-3-yl)oxyphenyl]pyridin-3-yl]-2,2,2-trifluoroethanamine]: > 1000 nM.
Next, `Cn1nc(-c2ccccn2)cc1Oc1cc(F)ccc1-c1ncc(CN)cn1` [compound 1341, [2-[4-fluoro-2-(2-methyl-5-pyridin-2-ylpyrazol-3-yl)oxyphenyl]pyrimidin-5-yl]methanamine]: 10 to 1000 nM; `COc1nc(-c2ccc(C#N)cc2Oc2cc(-c3ccccn3)nn2C)ncc1[C@H](O)CN` [compound 1328, 4-[5-[(1S)-2-amino-1-hydroxyethyl]-4-methoxypyrimidin-2-yl]-3-(2-methyl-5-pyridin-2-ylpyrazol-3-yl)oxybenzonitrile]: 10 to 1000 nM; `Cn1nc(C2CCOCC2)cc1Oc1cc(Cl)cnc1-c1ccc([C@@H](F)CN)cn1` [compound 1372, (2R)-2-[6-[5-chloro-3-[2-methyl-5-(oxan-4-yl)pyrazol-3-yl]oxypyridin-2-yl]pyridin-3-yl]-2-fluoroethanamine]: > 1000 nM.
Regarding `Cn1nc(-c2ccccn2)cc1Oc1cc(Cl)ncc1-c1ccc(CCN)cc1` [compound 1332, 2-[4-[6-chloro-4-(2-methyl-5-pyridin-2-ylpyrazol-3-yl)oxypyridin-3-yl]phenyl]ethanamine], the IC50 was > 1000 nM.
For the compound `Cn1nc(-c2ccccc2)nc1Oc1cc(Cl)ccc1-c1ncc(CCN)cn1` [compound 1365, 2-[2-[4-chloro-2-[(2-methyl-5-phenyl-1,2,4-triazol-3-yl)oxy]phenyl]pyrimidin-5-yl]ethanamine], the IC50 is > 1000 nM.
On to `Cn1nc(C2CCOCC2)cc1Oc1cc(C#N)ccc1-c1ncc([C@H](F)CN)cn1` [compound 1314, 4-[5-[(1S)-2-amino-1-fluoroethyl]pyrimidin-2-yl]-3-[2-methyl-5-(oxan-4-yl)pyrazol-3-yl]oxybenzonitrile], for which the IC50 was 10 to 1000 nM.
Take `Cn1nc(C2CC2)cc1Oc1cc(C#N)ccc1-c1ccc(C(F)(F)CN)nc1` [compound 1294, 4-[6-(2-amino-1,1-difluoroethyl)pyridin-3-yl]-3-(5-cyclopropyl-2-methylpyrazol-3-yl)oxybenzonitrile]: the IC50 was > 1000 nM.
For `Cc1cc(Oc2cc(C#N)ccc2-c2cccc3cnc(N)nc23)cc(N2CCOCC2)n1` [compound 1303, 4-(2-aminoquinazolin-8-yl)-3-(2-methyl-6-morpholin-4-ylpyridin-4-yl)oxybenzonitrile], the IC50 was > 1000 nM.
`Cn1nc(C2CC2)cc1Oc1cc(F)ccc1-c1ncc([C@H](O)CN)cn1` [compound 1383, (1S)-2-amino-1-[2-[2-(5-cyclopropyl-2-methylpyrazol-3-yl)oxy-4-fluorophenyl]pyrimidin-5-yl]ethanol]: the IC50 was 10 to 1000 nM.
For the compound `Cn1nc(C2CCOCC2)cc1Oc1cc(Cl)ccc1-c1ncc(CN)cn1` [compound 1362, [2-[4-chloro-2-[2-methyl-5-(oxan-4-yl)pyrazol-3-yl]oxyphenyl]pyrimidin-5-yl]methanamine], the IC50 is 10 to 1000 nM.
As to `Cn1nc(-c2ccccn2)cc1Oc1cc(C#N)ccc1-c1ncc2c(n1)CNC2` [compound 1393, 4-(6,7-dihydro-5H-pyrrolo[3,4-d]pyrimidin-2-yl)-3-(2-methyl-5-pyridin-2-ylpyrazol-3-yl)oxybenzonitrile], the IC50 was 10 to 1000 nM.
As to `Cn1nc([C@H]2CCOC2)cc1Oc1cc(Cl)ccc1-c1ccc(CN)cn1` [compound 1345, [6-[4-chloro-2-[2-methyl-5-[(3R)-oxolan-3-yl]pyrazol-3-yl]oxyphenyl]pyridin-3-yl]methanamine], the IC50 is 10 to 1000 nM.
Next, `Cn1nc(C2CC2)cc1Oc1cc(F)ccc1-c1ncc([C@@H](O)CN)cn1` [compound 1384, (1R)-2-amino-1-[2-[2-(5-cyclopropyl-2-methylpyrazol-3-yl)oxy-4-fluorophenyl]pyrimidin-5-yl]ethanol]: 10 to 1000 nM.
As for `Cc1cc(Oc2cc(Cl)ccc2-c2ncc([C@@H](O)CN)cn2)cc(N2CCOCC2)n1` [compound 1350, (1R)-2-amino-1-[2-[4-chloro-2-(2-methyl-6-morpholin-4-ylpyridin-4-yl)oxyphenyl]pyrimidin-5-yl]ethanol], the figure is < 10 nM; as for `Cn1nc(-c2ccccn2)cc1Oc1cc(Cl)ccc1-c1ccc([C@@H](O)CN)cn1` [compound 1401, (1R)-2-amino-1-[6-[4-chloro-2-(2-methyl-5-pyridin-2-ylpyrazol-3-yl)oxyphenyl]pyridin-3-yl]ethanol], 10 to 1000 nM; as for `Cn1nc([C@@H]2CCOC2)cc1Oc1cc(C#N)ccc1-c1ncc(CN)cn1` [compound 1308, 4-[5-(aminomethyl)pyrimidin-2-yl]-3-[2-methyl-5-[(3S)-oxolan-3-yl]pyrazol-3-yl]oxybenzonitrile], 10 to 1000 nM.
As for `Cn1nc(-c2ccccn2)cc1Oc1cc(Cl)ccc1-c1ccc(CN)cn1` [compound 1340, [6-[4-chloro-2-(2-methyl-5-pyridin-2-ylpyrazol-3-yl)oxyphenyl]pyridin-3-yl]methanamine], the figure is < 10 nM; as for `Cn1nc([C@@H]2CCOC2)cc1Oc1cc(C#N)ccc1-c1ccc(CN)cn1` [compound 1306, 4-[5-(aminomethyl)pyridin-2-yl]-3-[2-methyl-5-[(3S)-oxolan-3-yl]pyrazol-3-yl]oxybenzonitrile], < 10 nM.
